According to patent publication US4889857A, “Quinolonecarboxylic acid compounds and pharmaceutical use thereof” (Yoshitomi Pharmaceutical Industries, Ltd., priority 1987, dated 1989):
≈ marks a conversion by molar mass, not a printed value. Read-outs that look alike come from different tables or passages of the source.

Assays:
[1] = system: Staphylococcus aureus 308A-1; test: Antibacterial activity in vitro (MIC); format: cell-based
[2] = system: Streptococcus pyogenes S-8; test: Antibacterial activity in vitro (MIC); format: cell-based
[3] = system: Enterococcus faecalis LS-101; test: Antibacterial activity in vitro (MIC); format: cell-based
[4] = system: Streptococcus sarivaris IFO 13956; test: Antibacterial activity in vitro (MIC); format: cell-based
[5] = system: Aerobacter aerogenes IFO 12979; test: Antibacterial activity in vitro (MIC); format: cell-based; settings: Klebsiella aerogenes, IFO12979
[6] = system: Alcaligenes faecalis NCTC 415; test: Antibacterial activity in vitro (MIC); format: cell-based; settings: NCTC415, inoculum 10^6 cells/ml
Description: (§7) (Inoculum size: 10^6 cells/ml, Organisms with asterisk (*) were
(§8) cultivated in a 10% horse bloodadded medium.)

[7] = system: Enterobacter cloacae IFO 12937; test: Antibacterial activity in vitro (MIC); format: cell-based
Description: as §7, §8

[8] = system: E. coli KC-14; test: MIC of the infecting organism (Experiment 2); format: cell-based; settings: Escherichia coli, KC14
Description: (§1) Experimental infection was caused by inoculating male mice intraperitoneally with each organism. Each of the test compounds was administered orally to the mice, one hour after the inoculation. The therapeutic effect of each compounds was judged by using a 50% effective dose (ED50) from the survival rate on day 7 after injection by the Probit method as described in Proc. Soc. Exp. Biol. Med., Vol. 57, p.261-264, 1944. The Minimum inhibitory concentrations (MIC) were also measured.

[9] = system: S. aureus Smith; test: MIC of the infecting organism (Experiment 2); format: cell-based; settings: Staphylococcus aureus; Table 2; read-out: MIC
Description: as §1

[10] = system: S. aureus 109(MRSA); test: MIC of the infecting organism (Experiment 2); format: cell-based; settings: Staphylococcus aureus, Table 2
Description: (§2) Experimental infection was caused by inoculating male mice intraperitoneally with each organism. Each of the test compounds was administered orally to the mice, one hour after the inoculation. […] The Minimum inhibitory concentrations (MIC) were also measured.

[11] = system: S. pneumoniae Type III; test: MIC of the infecting organism (Experiment 2); format: cell-based; settings: Streptococcus pneumoniae; Table 2
Description: as §2

[12] = system: S. pyogenes C-203; test: MIC of the infecting organism (Experiment 2); format: cell-based; settings: Streptococcus pyogenes, C203; Table 2
Description: as §2

[13] = system: E. coli KC-14; test: Protective effect against experimental infection in mice; format: in vivo; settings: oral, 1 h after i.p. inoculation of 5.75 × 10^4 cells/mouse [488 LD50] with mucin; survival day 7; 95% confidence limit
Description: as §1
(§3) (The overnight cultures of test organisms with an asterisk (*) were
(§4) diluted with 50% mucin and 0.5 ml of each was injected intraperitoneally
(§5) into mice. A double asterisk (**) means a 95% confidence limit. MRSA mean
(§6) methycillinresistant Staphylococcus aureus.)

[14] = system: S. aureus 109(MRSA); test: as above; format: in vivo; settings: oral, 1 h after i.p. inoculation of 4.93 × 10^8 cells/mouse [5.7 LD50] with mucin; survival day 7; 95% confidence limit
Description: as §1, §3, §4, §5, §6

[15] = system: S. aureus Smith; test: as above; format: in vivo; settings: oral, 1 h after i.p. inoculation of 2.13 × 10^6 cells/mouse [792 LD50] with mucin; survival day 7; 95% confidence limit
Description: as §1, §3, §4, §5, §6

[16] = system: Micrococcus luteus IFO 12708; test: microbe, parasite or virus in culture; settings: IFO12708
Description: as §7, §8

[17] = Acute toxicity; settings: mouse, in vivo
Description: The compound A was intraveneously (iv) or orally (po) administered to a group of male mice once. After 10 days, the LD50 values were determined by the Litchfield-Wilcoxon method.

| Compound | MIC [6] [µg/mL] | MIC [9] [µg/mL] | MIC [10] [µg/mL] | MIC [11] [µg/mL] | MIC [12] [µg/mL] | ED50 [13] | ED50 [14] | ED50 [15] | MIC [16] [µg/mL] | other results |
| --- | --- | --- | --- | --- | --- | --- | --- | --- | --- | --- |
| CC1COc2c(N3CCN(C)CC3)c(F)cc3c(=O)c(C(=O)O)cn1c23 (stereo not shown) [OFLX, 9-fluoro-3-methyl-10-(4-methyl-1-piperazinyl)-7-oxo-2,3-dihydro-7H-pyrido[1,2,3-de][1,4]-benzoxazine-6-carboxylic acid] | 0.78 (≈ 2.16 µM) | 0.2 | 0.78 | 1.56 | 0.78 | 0.018(0.013-0.026) mg/mouse | 0.459(0.257-0.661) mg/mouse | 0.380(0.253-0.601) mg/mouse | 3.13 (≈ 8.66 µM) | MIC ([1]; 308A1, inoculum 10^6 cells/ml, read-out: MIC): 0.39 µg/mL (≈ 1.08 µM); MIC ([2]; S8, inoculum 10^6 cells/ml, 10% horse blood-added medium, read-out: MIC): 0.78 µg/mL (≈ 2.16 µM); MIC ([3]; LS101, inoculum 10^6 cells/ml, 10% horse blood-added medium, read-out: MIC): 0.78 µg/mL (≈ 2.16 µM); MIC ([4]; IFO13956, inoculum 10^6 cells/ml, 10% horse blood-added medium, read-out: MIC): 3.13 µg/mL (≈ 8.66 µM); MIC ([5]; inoculum 10^6 cells/ml, read-out: MIC): 1.56 µg/mL (≈ 4.32 µM); MIC ([7]; IFO12937, inoculum 10^6 cells/ml, read-out: MIC): 0.39 µg/mL (≈ 1.08 µM); MIC [8]: 0.025 µg/mL |
| CNCC1CN(c2c(F)cc3c(=O)c(C(=O)O)cn(C4CC4)c3c2F)CCO1 (stereo not shown) [Compound A, 1-cyclopropyl-6,8-difluoro-1,4,-dihydro-7-[2-(methylaminomethyl)morpholino]-4-oxoquinoline-3-carboxylic acid] | 1.56 (≈ 3.97 µM) | 0.012 | 0.2 | 0.05 | 0.05 | 0.028(0.019-0.042) mg/mouse | 0.061(0.041-0.093) mg/mouse | 0.068(0.044-0.104) mg/mouse | 0.39 (≈ 0.991 µM) | MIC ([1]; 308A1): 0.05 µg/mL (≈ 0.127 µM); MIC ([2]; S8): 0.1 µg/mL (≈ 0.254 µM); MIC ([3]; LS101): 0.1 µg/mL (≈ 0.254 µM); MIC ([4]; IFO13956): 0.2 µg/mL (≈ 0.508 µM); MIC [5]: 0.2 µg/mL (≈ 0.508 µM); MIC ([7]; IFO12937): 0.78 µg/mL (≈ 1.98 µM); MIC ([8]; Table 2, read-out: MIC): 0.05 µg/mL; LD50 at 240 h ([17]; iv): 210 mg/kg; LD50 at 240 h ([17]; po): > 3000 mg/kg |
